The source of these data is ChEMBL document CHEMBL4257571, “Discovery of 5-(2-chloro-4'-(1H-imidazol-1-yl)-[1,1'-biphenyl]-4-yl)-1H-tetrazole as potent and orally efficacious S-nitrosoglutathione reductase (GSNOR) inhibitors for the potential treatment of COPD” (Bioorg Med Chem Lett, 2018).

The pIC50 is the negative decadic logarithm of the IC50, by convention in mol/L. A word on the inhibition: it is the relative decrease from the control value, in per cent.

The target of data set [1] is T1, Alcohol dehydrogenase class-3 (Homo sapiens, UniProt P11766). The experiment in a line: Inhibition of human GSNOR assessed as reduction in NADH consumption after 3 mins by spectrophotometric analysis.
Target sequence in this assay (P11766 whole entry): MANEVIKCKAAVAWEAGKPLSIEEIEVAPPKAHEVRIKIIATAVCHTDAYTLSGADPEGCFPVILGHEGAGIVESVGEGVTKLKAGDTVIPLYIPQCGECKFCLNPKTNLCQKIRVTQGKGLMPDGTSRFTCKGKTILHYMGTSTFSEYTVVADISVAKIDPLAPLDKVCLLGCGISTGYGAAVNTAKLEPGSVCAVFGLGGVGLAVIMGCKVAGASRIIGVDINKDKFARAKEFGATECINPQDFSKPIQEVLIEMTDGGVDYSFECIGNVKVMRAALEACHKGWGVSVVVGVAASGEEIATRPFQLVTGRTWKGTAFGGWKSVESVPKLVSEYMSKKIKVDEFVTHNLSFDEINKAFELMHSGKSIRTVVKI
In data set [2] the target is T1, Alcohol dehydrogenase class-3. Nature of the data set: Inhibition of human GSNOR assessed as reduction in NADH consumption at 10 uM after 3 mins by spectrophotometric analysis relative to control.
Target sequence in this assay (P11766 2-374 limits assumed): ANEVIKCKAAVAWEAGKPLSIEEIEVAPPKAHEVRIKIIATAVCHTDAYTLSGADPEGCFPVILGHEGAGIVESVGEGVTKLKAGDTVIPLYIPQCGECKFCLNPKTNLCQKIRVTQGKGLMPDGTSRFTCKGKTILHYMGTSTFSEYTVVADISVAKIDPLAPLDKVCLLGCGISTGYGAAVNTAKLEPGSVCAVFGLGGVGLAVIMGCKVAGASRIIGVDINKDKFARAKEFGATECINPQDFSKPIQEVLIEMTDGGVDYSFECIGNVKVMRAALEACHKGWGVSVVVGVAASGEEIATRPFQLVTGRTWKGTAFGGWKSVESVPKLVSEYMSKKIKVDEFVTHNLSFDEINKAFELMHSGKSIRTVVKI
Another data set deals with CYP2C9 (Homo sapiens, UniProt P11712). The experiment in a line: Inhibition of CYP2C9 in human liver microsomes at 10 uM after 20 mins in presence of NADPH by LC/MS/MS analysis relative to control. In kind it is ADME.
Data set [3] can be described thus: Metabolic stability of mouse liver microsomes assessed as parent compound remaining at 0.1 uM after 60 mins in presence of NADPH by LC/MS/MS analysis. The data set is classed as ADME, microsome. Conditions: read-out: Stability. For orientation: Liver microsomes are a subcellular fraction often used to study metabolism.
Data set [4] is described as follows: Metabolic stability of rat liver microsomes assessed as parent compound remaining at 0.1 uM after 60 mins in presence of NADPH by LC/MS/MS analysis. In kind it is ADME, microsome. The settings on record: read-out: Stability.
The target of a further data set is CYP2C19 (Homo sapiens, UniProt P33261). Nature of the data set: Inhibition of CYP2C19 in human liver microsomes at 10 uM after 40 mins in presence of NADPH by LC/MS/MS analysis relative to control. The data set is classed as ADME.
The target of another data set is T2, CYP1A2 (Homo sapiens, UniProt P05177).
T2 sequence (P05177 whole entry): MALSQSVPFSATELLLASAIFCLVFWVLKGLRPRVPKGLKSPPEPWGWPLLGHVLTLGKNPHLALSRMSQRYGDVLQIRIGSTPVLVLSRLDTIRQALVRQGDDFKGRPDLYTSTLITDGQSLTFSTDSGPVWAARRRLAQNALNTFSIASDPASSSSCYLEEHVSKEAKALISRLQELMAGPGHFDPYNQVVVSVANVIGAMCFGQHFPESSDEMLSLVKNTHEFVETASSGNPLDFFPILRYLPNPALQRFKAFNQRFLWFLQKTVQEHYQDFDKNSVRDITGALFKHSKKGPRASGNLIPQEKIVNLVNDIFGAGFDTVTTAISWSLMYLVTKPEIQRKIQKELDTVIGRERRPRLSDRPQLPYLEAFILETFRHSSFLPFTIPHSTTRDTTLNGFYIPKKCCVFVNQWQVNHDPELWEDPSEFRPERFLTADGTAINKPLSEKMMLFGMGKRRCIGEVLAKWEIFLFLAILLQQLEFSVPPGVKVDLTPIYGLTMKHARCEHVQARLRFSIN
The experiment in a line: Inhibition of CYP1A2 in human liver microsomes at 10 uM after 20 mins in presence of NADPH by LC/MS/MS analysis relative to control. In kind it is ADME. The settings on record: liver microsomes.

The next data set concerns the target CYP2D6 (Homo sapiens, UniProt P10635). Nature of the data set: Inhibition of CYP2D6 in human liver microsomes at 10 uM after 20 mins in presence of NADPH by LC/MS/MS analysis relative to control. Conditions: liver microsomes. In kind it is ADME.
The target in another data set is CYP3A4 (Homo sapiens, UniProt P08684). Nature of the data set: Inhibition of CYP3A4 in human liver microsomes at 10 uM after 20 mins in presence of NADPH by LC/MS/MS analysis relative to control. In kind it is ADME. Conditions: liver microsomes.
Data set [5] can be described thus: Metabolic stability of human liver microsomes assessed as parent compound remaining at 0.1 uM after 60 mins in presence of NADPH by LC/MS/MS analysis. The data set is classed as ADME, microsome. The settings on record: read-out: Stability.

Structures are written as SMILES. pIC50: −log10 of the molar value.

Chain of CYP2D6 (P10635 whole entry): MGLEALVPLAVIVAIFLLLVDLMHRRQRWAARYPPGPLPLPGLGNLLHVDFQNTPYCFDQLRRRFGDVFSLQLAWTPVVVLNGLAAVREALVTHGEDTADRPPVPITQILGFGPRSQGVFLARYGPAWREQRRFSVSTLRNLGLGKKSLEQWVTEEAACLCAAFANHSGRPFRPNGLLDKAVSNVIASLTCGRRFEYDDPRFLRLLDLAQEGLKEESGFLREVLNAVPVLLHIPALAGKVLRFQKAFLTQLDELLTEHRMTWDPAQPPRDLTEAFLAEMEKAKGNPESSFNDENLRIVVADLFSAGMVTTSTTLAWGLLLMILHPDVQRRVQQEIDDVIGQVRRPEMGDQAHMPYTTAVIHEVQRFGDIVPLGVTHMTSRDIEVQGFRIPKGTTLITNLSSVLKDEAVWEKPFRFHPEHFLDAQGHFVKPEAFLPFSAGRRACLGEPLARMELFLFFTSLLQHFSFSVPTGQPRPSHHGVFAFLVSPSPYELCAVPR
Chain of CYP2C19 (P33261 whole entry): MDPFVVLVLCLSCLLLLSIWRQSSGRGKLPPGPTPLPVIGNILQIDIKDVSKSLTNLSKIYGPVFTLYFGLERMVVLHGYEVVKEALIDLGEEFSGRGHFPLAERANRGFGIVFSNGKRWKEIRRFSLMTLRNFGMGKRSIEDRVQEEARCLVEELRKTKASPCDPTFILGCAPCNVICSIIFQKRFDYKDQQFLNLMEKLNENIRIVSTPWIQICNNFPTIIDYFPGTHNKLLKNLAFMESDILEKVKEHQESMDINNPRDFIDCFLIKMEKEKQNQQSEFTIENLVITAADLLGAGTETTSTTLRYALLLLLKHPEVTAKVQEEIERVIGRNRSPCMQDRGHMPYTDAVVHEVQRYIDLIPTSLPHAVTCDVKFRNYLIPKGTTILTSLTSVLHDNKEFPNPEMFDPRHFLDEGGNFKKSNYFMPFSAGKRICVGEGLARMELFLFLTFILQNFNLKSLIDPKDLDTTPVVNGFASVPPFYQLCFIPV
Chain of CYP2C9 (P11712 whole entry): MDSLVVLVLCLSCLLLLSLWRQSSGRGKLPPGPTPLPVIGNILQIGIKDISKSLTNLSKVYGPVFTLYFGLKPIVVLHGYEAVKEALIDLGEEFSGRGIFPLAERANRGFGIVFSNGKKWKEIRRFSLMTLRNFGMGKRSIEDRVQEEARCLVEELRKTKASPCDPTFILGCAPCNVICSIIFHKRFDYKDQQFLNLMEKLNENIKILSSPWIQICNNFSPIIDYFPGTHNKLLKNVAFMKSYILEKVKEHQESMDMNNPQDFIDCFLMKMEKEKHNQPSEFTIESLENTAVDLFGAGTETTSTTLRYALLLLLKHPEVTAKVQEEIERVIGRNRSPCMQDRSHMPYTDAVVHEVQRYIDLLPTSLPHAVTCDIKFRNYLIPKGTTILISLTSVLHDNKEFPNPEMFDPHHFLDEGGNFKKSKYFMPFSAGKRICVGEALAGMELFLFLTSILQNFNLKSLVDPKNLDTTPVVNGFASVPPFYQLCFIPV
Chain of CYP3A4 (P08684 whole entry): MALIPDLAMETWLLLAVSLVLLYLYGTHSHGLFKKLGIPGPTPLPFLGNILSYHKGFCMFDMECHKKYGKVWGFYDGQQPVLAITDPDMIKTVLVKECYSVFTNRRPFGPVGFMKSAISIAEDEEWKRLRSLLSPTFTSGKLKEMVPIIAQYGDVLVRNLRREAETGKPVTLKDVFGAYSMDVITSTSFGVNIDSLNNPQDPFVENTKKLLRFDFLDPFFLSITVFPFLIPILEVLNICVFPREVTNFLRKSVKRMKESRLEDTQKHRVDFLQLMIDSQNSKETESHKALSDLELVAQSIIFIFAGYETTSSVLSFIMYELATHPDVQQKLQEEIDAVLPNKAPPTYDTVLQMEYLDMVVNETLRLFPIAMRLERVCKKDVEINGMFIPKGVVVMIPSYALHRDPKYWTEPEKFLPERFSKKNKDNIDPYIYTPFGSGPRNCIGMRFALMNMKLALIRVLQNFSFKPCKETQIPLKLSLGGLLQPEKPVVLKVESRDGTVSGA

With `Cc1cc(-c2nnn[nH]2)ccc1-c1ccc(-n2ccnc2)cc1`, the pIC50 in data set [1] was 7.59.
On to `N#Cc1ccc(-c2ccc(-n3ccnc3)cc2)cc1`, for which the inhibition in [2] was determined as 10%.
In the case of `O=C(O)c1ccc(-c2ccc(-n3ccnc3)cc2)c(F)c1`, in [1], the pIC50 is 7.54.
Same read-out and setting: under `Clc1cc(-c2nn[nH]n2)ccc1-c1ccc(-n2cnnc2)cc1` stands 6.23.
As for `Cc1cc(-n2ccnc2)cnc1-c1ccc(-c2nnn[nH]2)cc1`, the inhibition at 20 min, 10 µM on CYP2C9 is 61%; at CYP1A2, 1%; on CYP2D6, 9%; on CYP3A4 it was 17%. In addition, the remaining at 1 h, 0.1 µM was found to be 17% in data set [3], 50% in data set [4] and 94% in [5]. Besides, the inhibition at 40 min, 10 µM on CYP2C19 was found to be 69%. For the same molecule, the pIC50 in [1] was 7.77.
As to `c1cc(-c2nn[nH]n2)ccc1-c1ccc(-c2nnn[nH]2)cc1`, the pIC50 in data set [1] is 5.48.
Take `c1cn(-c2cnc(-c3ccc(-c4nnn[nH]4)cc3)c(C3CCCCC3)c2)cn1`: in data set [1], the pIC50 is 7.13.
For `Clc1cc(-n2ccnc2)cnc1-c1ccc(-c2nnn[nH]2)cc1`, the inhibition at 20 min, 10 µM at CYP2C9 was determined as 64%; at CYP1A2 it was 20%; at CYP2D6, 11%; on CYP3A4 it was 1%. Also, the remaining at 1 h, 0.1 µM was determined as 19% in [3], 39% in [4] and 83% in data set [5]. Also, the inhibition at 40 min, 10 µM on CYP2C19 stood at 42%. Moreover, the pIC50 in data set [1] was 7.70.
On to `O=C(O)c1ccc(-c2ccc(-n3ccnc3)cn2)cc1`, for which, in [1], the pIC50 was 6.67.
`Clc1cc(-c2nnn[nH]2)ccc1-c1ccc(-n2ccnc2)cn1`: the pIC50 in data set [1] was 6.51.
On to `O=C(O)c1ccc(-c2ccc(-n3ccnc3)cc2Cl)cc1`, for which the pIC50 in data set [1] was 7.23.
Same read-out and setting: then `Fc1cc(-c2nnn[nH]2)ccc1-c1ccc(-n2ccnc2)cc1`, with 7.70; and `O=C(O)c1ccc(-c2ccc(-n3ccnc3)cc2)c(C(F)(F)F)c1`, with 7.42; and `O=C(O)c1ccc(-c2ncc(-n3ccnc3)cc2Cl)cc1`, with 7.05.
Still for that read-out and setting: under `O=c1nc(-c2ccc(-c3ccc(-n4ccnc4)cc3)cc2)[nH]o1` stands 6.82.
`N#Cc1ccc(-c2ccc(-c3nn[nH]n3)cc2)cc1`: the inhibition in [2] is 27%.
In the case of `O=C(O)c1ccc(-c2ccc(O)cc2)cc1`, in data set [2], the inhibition worked out at 25%.
`Clc1cc(-c2nn[nH]n2)ccc1-c1ccc(-n2cnnn2)cc1`: in data set [2], the inhibition was determined as 36%.
As to `O=C(O)c1ccc(-c2ccc(-n3ccnc3)cc2)c(Cl)c1`, the pIC50 in data set [1] was 7.52.
With `CCc1cc(-n2ccnc2)cnc1-c1ccc(-c2nnn[nH]2)cc1F`, the pIC50 in data set [1] is 7.21.
Still for that read-out and setting: under `CCc1cc(-n2ccnc2)cnc1-c1ccc(-c2nnn[nH]2)cc1` stands 7.18.
For the molecule `Cc1cc(-n2ccnc2)ccc1-c1ccc(-c2nnn[nH]2)cc1`, the inhibition at 20 min, 10 µM at CYP2C9 was 86%; at CYP1A2 it was 39%; at CYP2D6, 44%; at CYP3A4, 26%. Also, the remaining at 1 h, 0.1 µM stood at 44% in [3], 68% in [4] and 99% in data set [5]. Besides, on CYP2C19, the inhibition at 40 min, 10 µM was 84%. The pIC50 in data set [1] is 7.85.
As for `O=C(O)c1ccc(-c2ccc(-n3ccnc3)cc2)cc1`, the pIC50 in [1] is 7.21.
Still for that read-out and setting: then `Cc1cc(-c2nnn[nH]2)ccc1-c1ncc(-n2ccnc2)cc1Cl`, with 6.03.
In the case of `NC(=O)c1ccc(-c2ccc(-n3ccnc3)cc2)cc1`, in [2], the inhibition is 60%.
As for `FC(F)(F)c1cc(-c2nnn[nH]2)ccc1-c1ccc(-n2ccnc2)cc1`, the pIC50 in data set [1] is 7.41.
For the molecule `Cc1cc(-n2ccnc2)ccc1-c1ccc(-c2nnn[nH]2)cc1Cl`, the inhibition at 20 min, 10 µM on CYP2C9 is 83%; on CYP1A2, 47%; on CYP2D6 it was 63%; on CYP3A4 it was 43%. Besides, the inhibition at 40 min, 10 µM on CYP2C19 turned out to be 76%. Further, the pIC50 in [1] is 7.92.
With `Cc1cc(-n2ccnc2)cnc1-c1ccc(C(=O)O)cc1`, the pIC50 in [1] is 7.39.
For the molecule `Cc1nccn1-c1ccc(-c2ccc(-c3nnn[nH]3)cc2)cc1`, the inhibition at 20 min, 10 µM was 18% at CYP2C9, 10% at CYP1A2, 37% on CYP2D6 and -2% at CYP3A4. The remaining at 1 h, 0.1 µM in [3] was determined as 92%; in data set [4] it was 82%; in data set [5] it was 63%. Further, on CYP2C19, the inhibition at 40 min, 10 µM was found to be 33%. In addition, in data set [1], the pIC50 was 7.01.
For the molecule `Cc1cc(C(=O)O)ccc1-c1ccc(-n2ccnc2)cc1`, the pIC50 in data set [1] is 7.54.
For `Cc1cc(-n2ccnc2)ccc1-c1ccc(C(=O)O)cc1`, the inhibition at 20 min, 10 µM at CYP2C9 is 37%; on CYP1A2, 22%; at CYP2D6, 14%; at CYP3A4, 4%. In addition, the remaining at 1 h, 0.1 µM was 48% in [3], 64% in data set [4] and 100% in data set [5]. Further, the inhibition at 40 min, 10 µM on CYP2C19 was 18%. The pIC50 in data set [1] is 7.70.
For `Cc1cc(-n2ccnc2)cnc1-c1ccc(C(=O)O)cc1F`, the pIC50 in data set [1] was 7.44.
Turning to `Clc1cc(-n2ccnc2)ccc1-c1ccc(-c2nnn[nH]2)cc1`, in data set [1], the pIC50 was 7.66.
With `CCc1cc(-n2ccnc2)ccc1-c1ccc(-c2nnn[nH]2)cc1`, the inhibition at 20 min, 10 µM at CYP2C9 came to 94%; at CYP1A2, 56%; on CYP2D6, 37%; on CYP3A4, 33%. The remaining at 1 h, 0.1 µM in [3] turned out to be 58%; in data set [4], 71%; in data set [5], 100%. Also, the inhibition at 40 min, 10 µM at CYP2C19 was determined as 86%. Moreover, the pIC50 in [1] is 8.21.
In the case of `CCc1cc(-n2ccnc2)ccc1-c1ccc(-c2nnn[nH]2)cc1F`, the inhibition at 20 min, 10 µM is 78% at CYP2C9, 41% on CYP1A2, 52% on CYP2D6 and 30% at CYP3A4. Further, the remaining at 1 h, 0.1 µM is 78% in [3], 80% in data set [4] and 97% in [5]. The inhibition at 40 min, 10 µM on CYP2C19 is 88%. Further, the pIC50 in [1] was 7.96.
On to `Cc1cc(-c2nnn[nH]2)ccc1-c1ccc(-n2ccnc2)cn1`, for which the pIC50 in data set [1] is 7.36.
Same read-out and setting: then `Cc1nccn1-c1ccc(-c2ccc(-c3nnn[nH]3)cc2Cl)cc1`, with 7.43.
As for `c1cn(-c2ccc(-c3ccc(-c4nn[nH]n4)cc3)cc2)cn1`, the inhibition at 20 min, 10 µM is 77% at CYP2C9, 74% on CYP1A2, 73% on CYP2D6 and 54% on CYP3A4. The remaining at 1 h, 0.1 µM in [3] is 31%; in data set [4] it was 58%; in data set [5] it was 66%. For the same molecule, the inhibition at 40 min, 10 µM on CYP2C19 was 69%. In addition, in data set [1], the pIC50 is 7.66.
With `c1cn(-c2ccc(-c3ccc(-c4nnn[nH]4)cc3)nc2)cn1`, the pIC50 in [1] is 7.49.
